Details: distilled water
Experimental: In the invention, the solubility in water at 25° C. of the monomer is determined by slowly adding the monomer in question to distilled water at 25° C. while stirring until the monomer separates from the water. The amount (% by mass) of the monomer in the solution immediately before separation is defined as the solubility.

Structure (SMILES)	solubility in water at 25° C.
C=C(C)C(=O)OCCOC(=O)c1ccccc1C(=O)O [2-methacryloyloxyethyl phthalate]	less than 0.2 % by mass
C=C(C)C(=O)O [methacrylic acid]	100 % by mass
